From patent US10208033B2, “β-carboline, dihydro-β-carboline and tetrahydro-β-carboline alkaloid derivatives and preparation methods same and use in aspects of preventing and treating plant viruses, fungicides and insecticides” (NANKAI UNIVERSITY, priority 2013, dated 2019)
Where a name gives a salt, the structure may show the parent alone.

Columns and labels:
[1] = tested on: tobacco mosaic virus (TMV); assay: Anti-TMV in vivo therapeutic effect; design: species or system tobacco mosaic virus (host Nicotiana tabacum L.cv.Xanthi NN); details: for inhibition at 100 µg/mL / inhibition at 500 µg/mL: Tobacco mosaic virus, read-out: Relative inhibition rate (%) In vivo therapy
Rhizoctonia solani = assay: Fungicidal (bactericidal) activity in vitro, PDA colony diameter; assay type: cell-based; details: 50 mg/kg; for inhibition of growth at 50 mg/kg: Rhizoctonia solani, 96 h
[2] = tested on: tobacco mosaic virus (TMV); assay: Anti-TMV in vivo protective effect; design: species or system tobacco mosaic virus (host Nicotiana tabacum L.cv.Xanthi NN); details: for inhibition at 100 µg/mL / inhibition at 500 µg/mL: Tobacco mosaic virus, read-out: Relative inhibition rate (%) In vivo protection
Fusarium graminearumt = assay: microbe, parasite or virus in culture; assay type: cell-based; details: for inhibition of growth at 50 mg/kg: Fusarium, 96 h, read-out: Bactericidal activity (%) Fusarium graminearumt
Macrophoma kawatsukai = assay: Fungicidal (bactericidal) activity in vitro, PDA colony diameter; assay type: cell-based; details: 50 mg/kg
Phytophthora capsici = assay: as above; assay type: cell-based; details: 50 mg/kg; for inhibition of growth at 50 mg/kg: Phytophthora capsici, 96 h
Botrytis cinerea = assay: as above; assay type: cell-based; details: 50 mg/kg; for inhibition of growth at 50 mg/kg: Botrytis cinerea, 96 h
Fusarium fujikuroi = assay: as above; assay type: cell-based; details: 50 mg/kg; for inhibition of growth at 50 mg/kg: Fusarium fujikuroi, 96 h
armyworms = assay type: in vivo; details: concentration 600 mg/kg
Cercospora arachidicola = assay: Fungicidal (bactericidal) activity in vitro, PDA colony diameter; assay type: cell-based; details: 50 mg/kg; for inhibition of growth at 50 mg/kg: Mycosphaerella arachidis, 96 h
cotton bollworms = assay: whole plant or invertebrate; details: for mortality at 600 mg/kg: Helicoverpa armigera, in Gossypium hirsutum, read-out: Cotton bollworm Mortality (%)
Description: Experimental method of cotton bollworms: feed and drug mixing method: measure 3 mL of prepared solution and add it to about 27 g of newly prepared feed, thereby obtaining needed concentration through dilution by 10 times.

mosquito larvae = assay: whole plant or invertebrate; details: 24 h; for mortality at 10 mg/kg: Culex pipiens, read-out: Mosquito larvae Mortality (%)
In short: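 Early fourth-instar Culex pipiens pallens larvae from an indoor colony, 10 per beaker, exposed to test compound at 5 ppm in water, diluted from a 1000 ppm acetone mother solution. Blank: water containing 0.5 mL test solvent.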

Sclerotinia scleotiorum = assay: Fungicidal (bactericidal) activity in vitro, PDA colony diameter; assay type: cell-based; details: 50 mg/kg; for inhibition of growth at 50 mg/kg: Sclerotinia, 96 h
Alternaria solani = assay: as above; assay type: cell-based; details: 50 mg/kg; for inhibition of growth at 50 mg/kg: Alternaria solani, 96 h
corn borers [3] = details: concentration 600 mg/kg
[4] = tested on: Colletotrichum orbiculare; assay: Fungicidal (bactericidal) activity in vitro, PDA colony diameter; assay type: cell-based; details: 50 mg/kg; for inhibition of growth at 50 mg/kg: Colletotrichum orbiculare, 96 h
cucumber fusarium wilt = assay: as above; assay type: cell-based; details: 50 mg/kg; for inhibition of growth at 50 mg/kg: Fusarium, 96 h
[5] = tested on: tobacco mosaic virus (TMV); assay: Anti-TMV in vivo inactivation; design: species or system tobacco mosaic virus (host Nicotiana tabacum L.cv.Xanthi NN); details: for inhibition at 100 µg/mL / inhibition at 500 µg/mL: Tobacco mosaic virus, read-out: Relative inhibition rate (%) In vivo inactivation
Rhizoctonia cereali = assay: Fungicidal (bactericidal) activity in vitro, PDA colony diameter; assay type: cell-based; details: 50 mg/kg; for inhibition of growth at 50 mg/kg: Rhizoctonia, 96 h
Bipolaria maydis = assay: organism not typed; assay type: cell-based; details: for inhibition at 50 mg/kg: read-out: Bactericidal activity (%) Bipolaria maydis
[6] = tested on: tobacco mosaic virus (TMV); assay: Anti-TMV activity, overall statements on Table 1; assay type: in vivo, tobacco mosaic virus (host Nicotiana tabacum L.cv.Xanthi NN); details: 100 μg/mL versus ningnanmycin at 100 μg/mL
potato late blight = assay: microbe, parasite or virus in culture; assay type: cell-based; details: for inhibition of growth at 50 mg/kg: Phytophthora infestans, 96 h, read-out: Bactericidal activity (%) potato late blight
[7] = tested on: tobacco mosaic virus (TMV); assay: Anti-TMV in vitro effect (half-leaf soaking); assay type: cell-based, tobacco mosaic virus (host Nicotiana tabacum L.cv.Xanthi NN); details: for inhibition at 100 µg/mL / inhibition at 500 µg/mL: Tobacco mosaic virus, read-out: Relative inhibition rate (%) In vitro activity
corn borers [8] = assay: whole plant or invertebrate; details: read-out: Corn borer Mortality (%)

C[C@@H]1N[C@H](C(=O)NNC(=O)C(C)(C)C)Cc2c1[nH]c1ccccc21 [Id-6, (1S, 3S)—N′-tert-valeryl-1-methyl-2,3,4,9-tetrahydropyridino [3,4-b] indol-3-formylhydrazine]
Relative inhibition rate (%) In vivo therapy ([1]; treatment dose 100 μg/mL): 14.2% | Relative inhibition rate (%) In vivo therapy ([1]; treatment dose 500 μg/mL): 42.1% | Bactericidal activity (%) Rhizoctonia solani (Rhizoctonia solani): 5.6% | Relative inhibition rate (%) In vivo protection ([2]; treatment dose 100 μg/mL): 16.9% | Relative inhibition rate (%) In vivo protection ([2]; treatment dose 500 μg/mL): 47.5% | Bactericidal activity (%) Fusarium graminearumt (Fusarium graminearumt; 50 mg/kg): 30.8% | Bactericidal activity (%) Macrophoma kawatsukai (Macrophoma kawatsukai): 42.4% | Bactericidal activity (%) Phytophthora capsici (Phytophthora capsici): 12.1% | Bactericidal activity (%) Botrytis cinerea (Botrytis cinerea): 50.0% | Bactericidal activity (%) Fusarium fujikuroi (Fusarium fujikuroi): 29.4% | Armyworm Mortality (%) (armyworms): 35% | Bactericidal activity (%) Cercospora arachidicola (Cercospora arachidicola): 9.1% | Cotton bollworm Mortality (%) (cotton bollworms; concentration 600 mg/kg): 25% | Mosquito larvae Mortality (%) (mosquito larvae; concentration 10 mg/kg): 65% | Bactericidal activity (%) Sclerotinia scleotiorum (Sclerotinia scleotiorum): 17.3% | Bactericidal activity (%) Alternaria solani (Alternaria solani): 14.3% | Corn borer Mortality (%) (corn borers [3]): 50% | Bactericidal activity (%) Colletotrichum orbiculare [4]: 24.0% | Bactericidal activity (%) Cucumber fusarium wilt (cucumber fusarium wilt): 4.5% | Relative inhibition rate (%) In vivo inactivation ([5]; treatment dose 100 μg/mL): 12.8% | Relative inhibition rate (%) In vivo inactivation ([5]; treatment dose 500 μg/mL): 44% | Bactericidal activity (%) Rhizoctonia cereali (Rhizoctonia cereali): 10.8% | Bactericidal activity (%) Bipolaria maydis (Bipolaria maydis; 50 mg/kg): 20.0% | anti-TMV activity compared with ningnanmycin [6]: equivalent to the activity of commercial variety ningnanmycin | Bactericidal activity (%) potato late blight (potato late blight): 26.1% | Relative inhibition rate (%) In vitro activity ([7]; treatment dose 100 μg/mL): 8.9% | Relative inhibition rate (%) In vitro activity ([7]; treatment dose 500 μg/mL): 45.7%

Cc1nccc2c1[nH]c1c([N+](=O)[O-])cccc12 [Ia-4]
inhibition at 100 µg/mL ([1]; treatment dose 100 μg/mL): 0% | inhibition at 500 µg/mL ([1]; treatment dose 500 μg/mL): 33.3% | inhibition of growth at 50 mg/kg (Rhizoctonia solani): 42.1% | inhibition at 100 µg/mL ([2]; treatment dose 100 μg/mL): 5.8% | inhibition at 500 µg/mL ([2]; treatment dose 500 μg/mL): 30.1% | inhibition of growth at 50 mg/kg (Fusarium graminearumt): 42.9% | inhibition at 50 mg/kg (Macrophoma kawatsukai): 35.7% | inhibition of growth at 50 mg/kg (Phytophthora capsici): 9.4% | inhibition of growth at 50 mg/kg (Botrytis cinerea): 18.2% | inhibition of growth at 50 mg/kg (Fusarium fujikuroi): 21.4% | Armyworm Mortality (%) (armyworms): 10% | inhibition of growth at 50 mg/kg (Cercospora arachidicola): 53.9% | mortality at 600 mg/kg (cotton bollworms): 10% | mortality at 10 mg/kg (mosquito larvae): 30% | inhibition of growth at 50 mg/kg (Sclerotinia scleotiorum): 29.4% | inhibition of growth at 50 mg/kg (Alternaria solani): 15.8% | inhibition of growth at 50 mg/kg [4]: 42.9% | inhibition of growth at 50 mg/kg (cucumber fusarium wilt): 38.5% | inhibition at 100 µg/mL ([5]; treatment dose 100 μg/mL): 10.5% | inhibition at 500 µg/mL ([5]; treatment dose 500 μg/mL): 36.4% | inhibition of growth at 50 mg/kg (Rhizoctonia cereali): 50% | inhibition at 50 mg/kg (Bipolaria maydis): 36.4% | inhibition of growth at 50 mg/kg (potato late blight): 27.3% | inhibition at 100 µg/mL ([7]; treatment dose 100 μg/mL): 0% | inhibition at 500 µg/mL ([7]; treatment dose 500 μg/mL): 30% | mortality at 600 mg/kg (corn borers [8]): 5%

Cc1nccc2c1[nH]c1cc(OC(=O)NC(C)C)ccc12 [Ia-5, isopropylamino formate (1-methylpyridino [3,4-b]indol-7)-ester]
inhibition at 100 µg/mL ([1]; treatment dose 100 μg/mL): 0% | inhibition at 500 µg/mL ([1]; treatment dose 500 μg/mL): 32.7% | inhibition of growth at 50 mg/kg (Rhizoctonia solani): 6.6% | inhibition at 100 µg/mL ([2]; treatment dose 100 μg/mL): 5.8% | inhibition at 500 µg/mL ([2]; treatment dose 500 μg/mL): 40.3% | inhibition of growth at 50 mg/kg (Fusarium graminearumt): 23.8% | inhibition at 50 mg/kg (Macrophoma kawatsukai): 2.4% | inhibition of growth at 50 mg/kg (Phytophthora capsici): 25% | inhibition of growth at 50 mg/kg (Botrytis cinerea): 0% | inhibition of growth at 50 mg/kg (Fusarium fujikuroi): 14.3% | Armyworm Mortality (%) (armyworms): 10% | inhibition of growth at 50 mg/kg (Cercospora arachidicola): 53.9% | mortality at 600 mg/kg (cotton bollworms): 15% | mortality at 10 mg/kg (mosquito larvae): 30% | inhibition of growth at 50 mg/kg (Sclerotinia scleotiorum): 9.8% | inhibition of growth at 50 mg/kg (Alternaria solani): 21.1% | inhibition of growth at 50 mg/kg [4]: 39.3% | inhibition of growth at 50 mg/kg (cucumber fusarium wilt): 34.6% | inhibition at 100 µg/mL ([5]; treatment dose 100 μg/mL): 0% | inhibition at 500 µg/mL ([5]; treatment dose 500 μg/mL): 29.5% | inhibition of growth at 50 mg/kg (Rhizoctonia cereali): 36.8% | inhibition at 50 mg/kg (Bipolaria maydis): 22.7% | inhibition of growth at 50 mg/kg (potato late blight): 18.2% | inhibition at 100 µg/mL ([7]; treatment dose 100 μg/mL): 0% | inhibition at 500 µg/mL ([7]; treatment dose 500 μg/mL): 31.3% | mortality at 600 mg/kg (corn borers [8]): 10%
